For assay [1], the system named is fibroblasts from BD subjects. Put plainly: ATP levels by bioluminescence (luciferase) assay after metabolic stress. The assay is classed as cell-based, human. The method, then:
(§1) Loss of red JC1 signal relative to monomeric green JC1 indicates collapse of mitochondrial membrane […] (Smiley et al., Proc. Natl. Acad. Sci. 88:3671-3675 (1991) and Cossarizza et al., Biochem. Biophys. Res. Comm. 197:40-45 (1993)).
(§2) ATP production was measured in cultured fibroblast lines using the Roche ATP Bioluminescence assay kit CLSII following the manufacturer's protocol (Roche Diagnostics, Mannheim, Germany). Briefly, cells were plated at a concentration of 2.5×10^5 cellsper 60 mm dish were used for each experiment and experiments were conducted two days later. Cell lysis was achieved by boiling in lysis solution ([…], 4 mM EDTA, pH=7.75) followed by incubation for 2 min at 100° C. The cells then were centrifuges spun at 1000×g for 1 min. The supernatants were used for total cell ATP determination. Samples were run in triplicate on a 96-well plate MLX luminometer (Dynex Technologies, Chantilly, Va., USA). Integration was delayed for 1 sec after the addition of luciferase and luminescence was measured for 10 seconds at an emission maximum of […]. Following ATP luminescence measurements, data was normalized to protein concentration as determined by the method of Bradford (Bradford DC assay, BioRad, Temecula, Calif., USA) to yield nanograms of ATP per mg of protein. Assays were performed in triplicate.
(§3) Fibroblasts (n=6) and lymphocytes (n=6) from patients with BD and age-matched controls (Fibroblasts, n=6; lymphocytes, n=6)) were exposed to hydrocortisone to induce mitochondrial stress (REFS). Hydrocortisone (Sigma H0888, St. Louis, Mo., USA) was dissolved in 50% ethanol/50% culture medium to yield a 40 mM stock solution. Hydrocortisone was then diluted to appropriate experimental concentrations (10 nM, 1 uM, 100 uM) with above described growth media. Confluent (85-95%) fibroblasts and lymphocytes (1×10^5 ? 1×10^6) were treated for 24 hr with hydrocortisone (sub-acute stress). Cells treated with vehicle (25% ethanol) alone served as controls. Following hydrocortisone treatment, fibroblasts were examined for alterations in mitochondrial morphology, membrane potential, and ATP levels, as described above. All experiments were performed in triplicate.
(§4) We also studied an equal number of fibroblast lines from BD and age-matched controls which were exposed to 100 μM hydrogen peroxide for 24 hrs (REFS). ATP levels were assayed as described above. Light microscopic analysis of JC1 to determine changes in mitochondrial membrane potential also were performed as previously described.

Assay [2] has as its system control fibroblasts. The settings on record: H2O2 treated. As to the method: as §1
as §2, with “triplicate. […]” for “triplicate.”

In assay [3] the test system is fibroblasts from BD patients. The assay can be described thus: Mitochondrial morphology by MitoTracker 7510 after metabolic stress. The class given is cell-based, human. As to the method:
as §3, with “The fluorescent marker, MitoTracker-[…] Fibroblasts (n=6)” for “Fibroblasts (n=6)”, “in triplicate. […] ATP levels were assayed as described above.” for “in triplicate.”

For assay [4], the system named is control fibroblasts. Described as above. The assay is classed as cell-based, human. As to the method:
as §3, with “The fluorescent marker, MitoTracker-[…] Fibroblasts (n=6)” for “Fibroblasts (n=6)”, “in triplicate. […] ATP levels were assayed as described above.” for “in triplicate.”

The subject of a further assay is BD fibroblasts. Put plainly: Mitochondrial membrane potential by JC-1 staining after metabolic stress. The assay is classed as cell-based, human.
From the text: as §1
(§5) The cationic fluorescent dye, JC-1 (5,5′,6,6′-tetrachloro-1,1′,3,3′-tetraethylbenzimidazolylcarbocyanine iodide) (Strategene, La Jolla, Calif. USA), was used to detect changes in mitochondrial membrane potential according to manufacturer's protocol. JC-1 reagent produces a red fluorescence (absorption/emission maxima=585/590 nm) after accumulation and aggregation in healthy, non-apoptotic cells with intact mitochondrial membrane potential and localizes to the cytoplasm as green with JC-1 monomers fluorescence (absorption/emission maxima=510/527 nm) in cells with compromised membrane potential. Briefly, cell lines were plated at a concentration of 2.5×10^4 on coverslips and were incubated with a 1:100 dilution of pre-warmed JC1 in growth media for 15 to 20 min at 37° C., 5% CO2. Cells were then rinsed once with assay buffer and mounted in PBS and analyzed immediately on a fluorescence microscopy. The coverslips were placed on standard microscopy slides and viewed immediately using a Zeiss Axiskop 2 epifluorescence microscope.
as §3, §4

The test system of assay [5] is Control fibroblasts and lymphocytes. The settings on record: 2 mM, 3 and 5 days, light microscopy. As to the method: Mood stabilizing drugs like lithium are commonly used as treatment for BD (Friedman et al., Biol. Psychiatr. 56:340-348 (2004) and Goodwin et al., JAMA 290:1467-1473 (2003)), and all but one of our subjects with BD was receiving lithium. […] Control fibroblasts and lymphocytes were treated with 2 mM lithium carbonate (LiCO3; approximately twice the average serum level of lithium in patients) for 3 and 5 days. Cells treated with a water vehicle only served as controls.
The fluorescent marker, MitoTracker-M7510 (Invitrogen, Carlsbad Calif.), was used to visualize mitochondria according to manufacturers instructions. Briefly, fibroblasts were plated at 2.5×10^4 and grown on coverslips, subsequently washed one time with pre-warmed growth media and incubated with M7510 at a final concentration of 250 nM in culture media at 37° C., 5% CO2 for 30 min. Cells were then washed once with culture media and fixed in 4% paraformaldehyde in 100 mM phosphate buffer pH 7.4 for 15 min. Following fixation, coverslips were rinsed two times in PBS and mounted in Gel Mount (Biomedia).

The test system of assay [6] is fibroblasts from healthy individuals. Put plainly: Mitochondrial membrane potential by JC-1 staining after metabolic stress. The settings on record: 100 μM HC, 24 hr. The assay is classed as cell-based, human.
From the text: as §1, §5, §3, §4

The mark [7] stands for this setting: HC treatment, BD and control fibroblasts, data not shown.

The structures appear in SMILES notation. “And” between values parts separate entries of the source, which are not always exact repeats. Equal entries are not always repeated. “Also recorded” adds a separate entry of the source. Where two headings read alike, the source gives them in different places.

On to `OO` [H2O2, hydrogen peroxide], for which the “decrease in ATP levels compared to untreated BD fibroblasts” value in assay [1] (H2O2 treated, p<0.001) is reported as 83%. In addition, in assay [1] (H2O2 treated, p<0.05), the “decrease in ATP levels compared to control cells exposed to H2O2” value worked out at 93%. The “ATP levels, mean” value in assay [1] (H2O2 treated, method b169: normalized to nanograms of ATP per mg of protein) is 6.2×10^−5 and 6.2×10^−4; in the assay on control fibroblasts [2] (method b169: normalized to nanograms of ATP per mg of protein), 9.9×10^−4. Besides, the “ATP compared to untreated control cells” value in the assay with control fibroblasts [2] is on record as “no significant difference”. For the same compound, the “mitochondrial morphology (MitoTracker 7510) vs untreated cells” value in assay [3] (100 μM H2O2, 24 hrs) was “almost complete loss of the mitochondrial network, mitochondrial clustering and dramatic mitochondrial fragmentation”; in the assay with control fibroblasts [4] (100 μM H2O2, 24 hrs), “a dispersed mitochondrial network with loss of elongated mitochondrial profiles, increased perinuclear clustering, and increased mitochondrial fragmentation; also recorded: dispersion of the mitochondrial network with loss of elongated mitochondrial profiles”. Further, the “JC1 staining (mitochondrial membrane integrity)” value in the assay with BD fibroblasts (100 μM H2O2, 24 hrs) is “severe loss of mitochondrial membrane integrity”.
For `O=C([O-])[O-].[Li+].[Li+]` [LiCO3, lithium carbonate], the “mitochondrial shape and distribution vs vehicle treated cells” value in assay [5] was “no significant differences in mitochondrial shape and distribution”; in assay [5] (listed as lithium), “could not be replicated”.
As to `C[C@]12CCC(=O)C=C1CC[C@@H]1[C@@H]2[C@@H](O)C[C@@]2(C)[C@H]1CC[C@]2(O)C(=O)CO` [hydrocortisone], in assay [1] (setting [7]), the “differences in ATP levels after treatment” value is given as “did not reach statistical significance”. Besides, the “mitochondrial morphology (MitoTracker 7510)” value in assay [3] (100 μM HC, 24 hr) is given as “perinuclear clustering like that seen in untreated cells but a greater degree of mitochondrial fragmentation”. For the same compound, in the assay with control fibroblasts [4] (100 μM HC, 24 hr), the “mitochondrial morphology (MitoTracker 7510) vs untreated cells” value is “some loss in the reticular pattern of mitochondria; also recorded: a slight loss in the reticular pattern of the mitochondrial network and greater frequency of perinuclear clustering”. Besides, in assay [6], the “JC-1 staining (red aggregates vs green monomer) vs untreated cells” value is given as “loss of red mitochondrial aggregates in most cells; also recorded: loss of red mitochondrial aggregates”. In the assay on BD fibroblasts (100 μM HC, 24 hr), the “JC1 staining (red aggregates vs green monomer)” value is given as “an even greater loss of red JC1 mitochondrial aggregates; also recorded: a loss of red JC1 mitochondrial aggregates in the majority of cells”. For the same compound, the “ratiometric changes in JC1 after treatment” value in the assay on BD fibroblasts (setting [7]) is “did not reach statistical significance”.

These data come from patent publication US9603872B2, “Methods and compositions for mitochondrial replacement therapy” (The McLeon Hospital Corporation, priority 2007, dated 2017).
